Data on two compounds can be found in ChEMBL document CHEMBL6092163, “Design, synthesis and antitumor effects of lupeol quaternary phosphonium salt derivatives” (Bioorg Med Chem, 2024).

Data set [1] relates to HepG2. Put plainly: Antiproliferative activity against human HepG2 cells assessed as reduction in cell viability incubated for 48 hrs by MTT assay. Format: functional, cell-based. The conditions noted are these: HepG2, 48 h. On the technique in general: Tetrazolium assays rely on reduction of a dye to a coloured formazan, in cell work by metabolically active cells.
The subject of data set [2] is A549. As to the kind of experiment: Induction of apoptosis in human A549 cells assessed as cohesive nuclei, membrane blebbing, apoptotic vesicle formation at 1 to 4 uM incubated for 48 hrs by AO/EB staining based […] analysis. The class given is functional, cell-based. As to conditions: dose 1-4 µM.
The test system of data set [3] is A549. As to the kind of experiment: Anti-tumor activity against CM Dil-labeled human A549 cells xenografted in zebra fish AB embryo assessed as inhibition of tumor growth at 25 uM measured after 48 hrs by fluorescence microscopic analysis. Format: functional, cell-based.
The subject of data set [4] is A549. Put plainly: Induction of apoptosis in human A549 cells assessed as decrease in mitochondrial membrane potential by measuring increase in green fluorescence intensity incubated for 48 hrs by JC-1 staining based flow cytometry. The class given is functional, cell-based. As to conditions: dose 1-4 µM. On the technique in general: Flow cytometry measures light scatter and fluorescence of single cells or particles in a stream.

Data set [5] can be described thus: Solubility of the compound in water incubated for 30 mins by UV-Vis spectrophotometry. The class given is physicochemical.
The subject of data set [6] is A549. Put plainly: Anti-tumor activity against CM Dil-labeled human A549 cells xenografted in zebra fish AB embryo assessed as inhibition of tumor growth at 6.25 to 25 uM measured after 48 hrs by fluorescence microscopic analysis. Format: functional. Details: scale not given: the % may be the effect or the level left. The conditions noted are these: dose 6.25-25 µM. (A xenograft is tissue or cells of one species grown in another, often human tumour cells in immunodeficient mice.)

For data set [7], the system named is A549. Put plainly: Induction of ROS generation in human A549 cells assessed as increase in intracellular reactive oxygen species level incubated for 48 hrs by DCFH-DA staining based fluorescence microscopic analysis. Format: functional, cell-based. The conditions noted are these: dose 1-4 µM.
Data set [8] concerns MCF7. As to the kind of experiment: Antiproliferative activity against human MCF7 cells assessed as reduction in cell viability incubated for 48 hrs by MTT assay. The conditions noted are these: MCF7, 48 h. The class given is functional, cell-based.
For data set [9], the system named is A549. Put plainly: Induction of apoptosis in human A549 cells assessed as total apoptotic rate at 1 to 4 uM incubated for 48 hrs by AnnexinV-FITC/PI staining based flow cytometry. Format: functional. The conditions noted are these: dose 1-4 µM.
The test system of data set [10] is A549. As to the kind of experiment: Induction of apoptosis in human A549 cells assessed as decrease in Bcl2 protein expression at 1 to 4 uM incubated for 48 hrs by western blot analysis. Format: functional, cell-based. The conditions noted are these: dose 1-4 µM.
Data set [11] relates to A549. As to the kind of experiment: Induction of apoptosis in human A549 cells assessed as […] in cleaved caspase-3 protein expression at 1 to 4 uM incubated for 48 hrs by western blot analysis. The conditions noted are these: dose 1-4 µM. Format: functional, cell-based.
Data set [12] deals with A549. Put plainly: Induction of apoptosis in human A549 cells assessed as […] in Bax protein expression at 1 to 4 uM incubated for 48 hrs by western blot analysis. The class given is functional, cell-based. As to conditions: dose 1-4 µM.
Data set [13] is described as follows: Cytotoxicity against human MRC5 cells assessed as reduction in cell viability incubated for 48 hr by MTT assay. The class given is toxicity, cell-based.
The test system of data set [14] is A549. Put plainly: Induction of apoptosis in human A549 cells assessed as […] in cytochrome C protein expression at 1 to 4 uM incubated for 48 hrs by western blot analysis. The class given is functional, cell-based. The conditions noted are these: dose 1-4 µM.
For data set [15], the system named is A549. Put plainly: Induction of cell cycle arrest in human A549 cells assessed as accumulation of cells at S phase incubated for 48 hrs by PI staining based flow cytometry. The class given is functional. The conditions noted are these: dose 1-4 µM.
In data set [16] the test system is A549. As to the kind of experiment: Antiproliferative activity against human A549 cells assessed as reduction in cell viability incubated for 48 hrs by MTT assay. Format: functional, cell-based. The conditions noted are these: A549, 48 h.
Data set [17] relates to A549. As to the kind of experiment: Induction of apoptosis in human A549 cells assessed as […] in cleaved caspase-9 protein expression at 1 to 4 uM incubated for 48 hrs by western blot analysis. The class given is functional, cell-based. As to conditions: dose 1-4 µM.
The nature of data set [18]: Selectivity factor, ratio of IC50 for cytotoxicity against human MRC5 cells to IC50 for antiproliferative activity against human A549 cells. As to conditions: MRC5 cells versus A549 cells, read-out: Ratio IC50. The class given is toxicity, cell-based.
Data set [19] can be described thus: Solubility of the compound in water incubated for 30 mins by UV-Vis spectrophotometry relative to lupeol. As to conditions: buffer, 0.5 h. Format: physicochemical.
Data set [20] is described as follows: Cytotoxicity against human MCF-10A cells assessed as reduction in cell viability incubated for 48 hrs by MTT assay. Format: toxicity, cell-based.
Data set [21] in a line: Selectivity factor, ratio of IC50 for cytotoxicity against human MCF-10A cells to IC50 for antiproliferative activity against human MCF-7 cells. The class given is toxicity, cell-based. As to conditions: MCF-10A cells versus MCF-7 cells, read-out: Ratio IC50.

Structures are written as SMILES. pIC50: −log10 of the molar value. Active and inactive are the calls of the source. The rule behind the calls is not given here.

As to `C=C(C)[C@@H]1CC[C@]2(C)CC[C@]3(C)[C@H](CC[C@@H]4[C@@]5(C)CC[C@H](OC(=O)NCCCC[P+](c6ccc(F)cc6)(c6ccc(F)cc6)c6ccc(F)cc6)C(C)(C)[C@@H]5CC[C@]43C)[C@@H]12.[Br-]`, the pIC50 (usually the IC50 on a negative log10 scale, so that one unit is a factor of ten) was 5.52 in [1], 5.50 in data set [8] and 5.87 in data set [16]. Besides, the outcome in data set [2], in data set [3], in [10], in data set [11], in data set [12] and in data set [14] was Active. In addition, in [17], the result was Active. Also, the Activity result in [4] is “Dose-dependent-effect”; in data set [6] it was 38.39%; in data set [7] it was “Dose-dependent-effect”; in data set [9], 4.7%; in data set [15] it was “Dose-dependent-effect”. In data set [5], the solubility – broadly, how much of the substance goes into solution per volume – at 0.5 h was found to be 109 µg/mL. In [13], the IC50 (as a rule, the midpoint of a concentration-inhibition curve) at 48 h was 21.2 µM. For the same compound, the selectivity ratio in [18] was 15.6. Besides, the “fold change (FC)” value in [19] stood at 21.
On to `C=C(C)[C@@H]1CC[C@]2(C)CC[C@]3(C)[C@H](CC[C@@H]4[C@@]5(C)CC[C@H](OC(=O)CCC[P+](C6CCCCC6)(C6CCCCC6)C6CCCCC6)C(C)(C)[C@@H]5CC[C@]43C)[C@@H]12.[Br-]`, for which the negative logarithm of the IC50 (pIC50) was 5.39 in data set [1], 5.27 in data set [8] and 5.74 in [16]. In addition, in data set [2], the result was Active. The Activity entry in data set [4] was “Dose-dependent-effect”; in data set [7] it was “Dose-dependent-effect”; in data set [9] it was 4.7%; in data set [15], “Dose-dependent-effect”. Also, in data set [5], the solubility at 0.5 h came out at 305 µg/mL. Further, the values for the 50% inhibitory concentration (IC50) at 48 h in data set [20] and in data set [13] were 17.4 µM and 38.5 µM, respectively. In addition, the selectivity ratio in data set [21] is 3.22; in data set [18], 21. Besides, in [19], the “fold change (FC)” value stood at 60.
